The assay concerns the target T1, F508del (Homo sapiens, UniProt P13569, DEL508-508).
T1 construct: expressed in transfected cells
The assay can be described thus: Protocol 2: FRET membrane potential optical assay (VIPR), identification of correction compounds. The assay is classed as cell-based. Summed up:
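NIH3T3 mouse fibroblasts stably expressing F508del-CFTR incubated with compound 16 h at 37 °C in serum-free medium, then loaded with CC2-DMPE/DiSBAC2(3) FRET dyes. Channel activated with 10 μM forskolin plus 20 μM genistein in Cl⁻-free (gluconate) bath; depolarisation from Cl⁻ efflux read on VIPR II.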

Where [1] appears, read: F508del CFTR modulator activity, compounds of Table 1, read-out: EC30.
Setting [2] is: Table 3, compounds of Table 1 as modulators of CFTR activity, protocol not stated.

The source of these data is patent US10758534B2 (Vertex Pharmaceuticals Incorporated, priority 2014, dated 2020).

Broadly, the EC30 is the concentration at which the effect reaches the 30% level.

Each structure is given as a SMILES string. Where two headings read alike, the source gives them in different places. Bounds are passed on as bounds.

T1 sequence (P13569 with tags, fused parts or gaps DEL508-508): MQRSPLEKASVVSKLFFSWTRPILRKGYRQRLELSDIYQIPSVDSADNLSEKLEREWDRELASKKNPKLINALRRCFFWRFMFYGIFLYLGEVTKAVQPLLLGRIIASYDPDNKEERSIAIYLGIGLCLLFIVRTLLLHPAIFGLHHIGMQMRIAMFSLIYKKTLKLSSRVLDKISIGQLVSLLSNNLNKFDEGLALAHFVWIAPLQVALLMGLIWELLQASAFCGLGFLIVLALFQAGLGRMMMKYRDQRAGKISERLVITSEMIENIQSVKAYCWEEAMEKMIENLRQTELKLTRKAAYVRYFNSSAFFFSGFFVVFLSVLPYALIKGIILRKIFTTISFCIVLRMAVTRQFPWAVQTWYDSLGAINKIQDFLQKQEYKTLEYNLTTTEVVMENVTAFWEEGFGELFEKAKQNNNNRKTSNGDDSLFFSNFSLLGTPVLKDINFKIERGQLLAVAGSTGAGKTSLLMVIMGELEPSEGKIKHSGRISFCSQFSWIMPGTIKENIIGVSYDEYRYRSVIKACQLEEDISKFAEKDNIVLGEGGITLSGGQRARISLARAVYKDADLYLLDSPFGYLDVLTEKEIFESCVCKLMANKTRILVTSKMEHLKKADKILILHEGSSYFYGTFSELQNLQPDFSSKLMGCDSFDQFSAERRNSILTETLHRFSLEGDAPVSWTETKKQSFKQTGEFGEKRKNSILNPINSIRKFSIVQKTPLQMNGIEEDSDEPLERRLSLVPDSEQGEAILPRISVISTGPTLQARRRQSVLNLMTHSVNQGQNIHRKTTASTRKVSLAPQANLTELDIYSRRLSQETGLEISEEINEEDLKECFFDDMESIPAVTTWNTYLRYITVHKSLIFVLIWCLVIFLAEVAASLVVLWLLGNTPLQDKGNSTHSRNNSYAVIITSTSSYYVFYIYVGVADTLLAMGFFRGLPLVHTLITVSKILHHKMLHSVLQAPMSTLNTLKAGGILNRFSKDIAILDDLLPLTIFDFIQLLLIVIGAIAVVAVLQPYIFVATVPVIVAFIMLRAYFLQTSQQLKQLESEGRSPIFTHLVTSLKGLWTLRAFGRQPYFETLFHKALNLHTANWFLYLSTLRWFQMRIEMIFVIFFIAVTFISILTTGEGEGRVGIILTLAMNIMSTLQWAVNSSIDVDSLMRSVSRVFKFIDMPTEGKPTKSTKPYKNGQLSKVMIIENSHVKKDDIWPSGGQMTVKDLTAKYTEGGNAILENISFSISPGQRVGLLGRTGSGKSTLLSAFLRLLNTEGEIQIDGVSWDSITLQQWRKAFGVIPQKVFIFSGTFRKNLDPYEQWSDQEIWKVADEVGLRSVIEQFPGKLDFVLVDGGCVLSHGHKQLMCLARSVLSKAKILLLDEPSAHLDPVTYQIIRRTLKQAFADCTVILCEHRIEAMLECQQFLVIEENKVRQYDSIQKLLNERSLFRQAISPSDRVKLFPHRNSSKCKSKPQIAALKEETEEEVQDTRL

`CC(=O)Nc1cccc(Nc2cccc(S(=O)(=O)NC(=O)c3cccnc3N3CC(C)CC3(C)C)n2)c1` (centres unmarked) [Compound 2387, N—[[6-(3-acetamidoanilino)-2-pyridyl]sulfonyl]-2-(2,2,4-trimethylpyrrolidin-1-yl)pyridine-3-carboxamide]: the EC30 under setting [1] was 3000 to 10000 nM.

On to `CC1CN(c2ncccc2C(=O)NS(=O)(=O)c2cccc(Oc3cccc(Cl)c3F)n2)C(C)(C)C1` (centres unmarked) [Compound 2165, N—[[6-(3-chloro-2-fluoro-phenoxy)-2-pyridyl]sulfonyl]-2-(2,2,4-trimethylpyrrolidin-1-yl)pyridine-3-carboxamide], for which the EC30 under setting [1] was under 3000 nM.

Take `Cc1cc(C)c(Oc2nc(-c3ccc(Cl)cc3)ccc2C(=O)NS(=O)(=O)c2cccc(N)n2)c(C)c1` [Compound 234, N-[(6-amino-2-pyridyl)sulfonyl]-6-(4-chlorophenyl)-2-(2,4,6-trimethylphenoxy)pyridine-3-carboxamide]: the EC30 result under setting [2] is on record as “+++ (“+++” means <3 uM)”. On to `Cc1ccc(-c2nc(C(C)(C)C)ccc2C(=O)NS(=O)(=O)c2cccc(N)c2)cc1` [Compound 301, N-(3-aminophenyl)sulfonyl-6-tert-butyl-2-(p-tolyl)pyridine-3-carboxamide], for which, under setting [2], the EC30 entry is “++ (“++” means between 3 uM and 10 uM)”. `CC(C)COc1cc(F)cc(-c2ccc(C(=O)NS(=O)(=O)c3cccc(N)n3)c(N3CCCC3C(C)(C)C)n2)c1` (centres unmarked) [Compound 613, N-[(6-amino-2-pyridyl)sulfonyl]-2-(2-tert-butylpyrrolidin-1-yl)-6-(3-fluoro-5-isobutoxy-phenyl)pyridine-3-carboxamide]: under setting [2], the EC30 result is on record as “+++ (“+++” means <3 uM)”.

On to `Cc1cc(-c2ccc(C(=O)NS(=O)(=O)c3cccc(N)n3)c(N3C[C@@H](C)CC3(C)C)n2)cc(OCC(C)C)n1` [Compound 2010, N-[(6-amino-2-pyridyl)sulfonyl]-6-(2-isobutoxy-6-methyl-4-pyridyl)-2-[(4S)-2,2,4-trimethylpyrrolidin-1-yl]pyridine-3-carboxamide], for which the EC30 under setting [1] is under 3000 nM. On to `CC1CN(c2ncccc2C(=O)NS(=O)(=O)c2cccc(OCc3ccc(C(C)C)cc3)n2)C(C)(C)C1` (centres unmarked) [Compound 2415, N—[[6-[(4-isopropylphenyl)methoxy]-2-pyridyl]sulfonyl]-2-(2,2,4-trimethylpyrrolidin-1-yl)pyridine-3-carboxamide], for which the EC30 under setting [1] was under 3000 nM.

For the compound `Cc1cc(C)c(Oc2nc(N3CCCC3)ccc2C(=O)NS(=O)(=O)c2cccc(N)n2)c(C)c1` [Compound 746, N-[(6-amino-2-pyridyl)sulfonyl]-6-pyrrolidin-1-yl-2-(2,4,6-trimethylphenoxy)pyridine-3-carboxamide], the EC30 result under setting [2] is recorded as “+++ (“+++” means <3 uM)”. In the case of `CC(C)COc1cc(F)cc(-c2ccc(C(=O)NS(=O)(=O)c3cccc(N)n3)c(N3CCC(C)C(C)C3)n2)c1` (single isomer, unassigned) [Compound 2178, N-[(6-amino-2-pyridyl)sulfonyl]-2-(3,4-dimethyl-1-piperidyl)-6-(3-fluoro-5-isobutoxy-phenyl)pyridine-3-carboxamide], where the note is “F508del CFTR modulator activity, compounds of Table 1”, the EC30 result is on record as “+++ (“+++” means <3 uM)”.

Consider `Cc1cccc(-c2ccc(C(=O)NS(=O)(=O)c3ccc[nH]c3=O)c(N3C[C@@H](C)CC3(C)C)n2)c1C` [Compound 2073, 6-(2,3-dimethylphenyl)-N-[(2-oxo-1H-pyridin-3-yl)sulfonyl]-2-[(4S)-2,2,4-trimethylpyrrolidin-1-yl]pyridine-3-carboxamide], for which the EC30 under setting [1] was under 3000 nM.

Consider `Cc1cc(C)c(Oc2nc(-c3cc(F)cc(OCC(C)C)c3)ccc2C(=O)NS(=O)(=O)c2cncc(N)n2)c(C)c1` [Compound 586, N-(6-aminopyrazin-2-yl)sulfonyl-6-(3-fluoro-5-isobutoxy-phenyl)-2-(2,4,6-trimethylphenoxy)pyridine-3-carboxamide], for which, under setting [2], the EC30 entry is given as “+++ (“+++” means <3 uM)”. Regarding `C#CC1CCCN(c2nc(-c3cc(F)cc(OCC(C)C)c3)ccc2C(=O)NS(=O)(=O)c2ccn[nH]2)C1` (centres unmarked) [Compound 431, 2-(3-ethynyl-1-piperidyl)-6-(3-fluoro-5-isobutoxy-phenyl)-N-(1H-pyrazol-5-ylsulfonyl)pyridine-3-carboxamide], the EC30 entry under setting [2] is “++ (“++” means between 3 uM and 10 uM)”. The same measure, in the same setting: the result for `CC(C)Oc1ccc(-c2ccc(C(=O)NS(=O)(=O)c3cccc(N)n3)c(N3CCC4CCCC43)n2)cn1` (centres unmarked) [Compound 732, 2-(3,3a,4,5,6,6a-hexahydro-2H-cyclopenta[b]pyrrol-1-yl)-N-[(6-amino-2-pyridyl)sulfonyl]-6-(6-isopropoxy-3-pyridyl)pyridine-3-carboxamide] reads “+++ (“+++” means <3 uM)”. Turning to `COc1ccc(-c2ccc(C(=O)NS(=O)(=O)c3cccnc3N)c(N3C[C@@H](C)CC3(C)C)n2)cc1OC` [Compound 2664, N-[(2-amino-3-pyridyl)sulfonyl]-6-(3,4-dimethoxyphenyl)-2-[(4S)-2,2,4-trimethylpyrrolidin-1-yl]pyridine-3-carboxamide], the EC30 under setting [1] is under 3000 nM. Take `Cc1cc(C)c(Oc2nc(C)ccc2C(=O)NS(=O)(=O)c2cccc(NC(C)C)n2)c(C)c1` [Compound 482, N-[[6-(isopropylamino)-2-pyridyl]sulfonyl]-6-methyl-2-(2,4,6-trimethylphenoxy)pyridine-3-carboxamide]: the EC30 result under setting [2] is “+++ (“+++” means <3 uM)”. With `CC(=O)c1cccc(Oc2cccc(S(=O)(=O)NC(=O)c3cccnc3N3CC(C)CC3(C)C)n2)c1` (centres unmarked) [Compound 2569, N—[[6-(3-acetylphenoxy)-2-pyridyl]sulfonyl]-2-(2,2,4-trimethylpyrrolidin-1-yl)pyridine-3-carboxamide], the EC30 under setting [1] is under 3000 nM. As to `CC1CN(c2nc(-c3cccc(OC(C)C)n3)ccc2C(=O)NS(=O)(=O)c2cccc(N)n2)C(C)(C)C1` (centres unmarked) [Compound 708, N-[(6-amino-2-pyridyl)sulfonyl]-6-(6-isopropoxy-2-pyridyl)-2-(2,2,4-trimethylpyrrolidin-1-yl)pyridine-3-carboxamide], the EC30 entry under setting [2] is reported as “+++ (“+++” means <3 uM)”. `CC1CN(c2ncccc2C(=O)NS(=O)(=O)c2cccc(OCC3CCC3)n2)C(C)(C)C1` (centres unmarked) [Compound 2188, N—[[6-(cyclobutylmethoxy)-2-pyridyl]sulfonyl]-2-(2,2,4-trimethylpyrrolidin-1-yl)pyridine-3-carboxamide]: the EC30 under setting [1] is under 3000 nM. Consider `CC(C)COc1cc(F)cc(-c2ccc(C(=O)NS(=O)(=O)c3cccc(N)n3)c(N3CCC(C(F)(F)F)C3(C)C)n2)c1` (centres unmarked) [Compound 780, N-[(6-amino-2-pyridyl)sulfonyl]-2-[2,2-dimethyl-3-(trifluoromethyl)pyrrolidin-1-yl]-6-(3-fluoro-5-isobutoxy-phenyl)pyridine-3-carboxamide], for which, under setting [2], the EC30 entry is “+++ (“+++” means <3 uM)”.

On to `Cc1cccc(C)c1Cn1nc(-c2cccc(OC(C)C)c2)cc1C(=O)NS(=O)(=O)c1ccccc1` [Compound 133, N-(benzenesulfonyl)-2-[(2,6-dimethylphenyl)methyl]-5-(3-isopropoxyphenyl)pyrazole-3-carboxamide], for which the EC30 result under setting [2] is on record as “+++ (“+++” means <3 uM)”.

On to `CC1CN(c2ncccc2C(=O)NS(=O)(=O)c2cccc(Oc3cc(F)cc(Cl)c3)n2)C(C)(C)C1` (centres unmarked) [Compound 2719], for which the EC30 under setting [1] was under 3000 nM. For the compound `CC(C)COc1cc(F)cc(-c2ccc(C(=O)NS(=O)(=O)c3cccc(N)n3)c(N3CC(C)CC3(C)C)n2)c1` (centres unmarked) [Compound 555, N-[(6-amino-2-pyridyl)sulfonyl]-6-(3-fluoro-5-isobutoxy-phenyl)-2-(2,2,4-trimethylpyrrolidin-1-yl)pyridine-3-carboxamide], under setting [2], the EC30 entry was “+++ (“+++” means <3 uM)”.

As for `CC1CN(c2ncccc2C(=O)NS(=O)(=O)c2cccc(N3CCC(CCN(C)C)CC3)n2)C(C)(C)C1` (centres unmarked) [Compound 2383, N—[[6-[4-(2-dimethylaminoethyl)-1-piperidyl]-2-pyridyl]sulfonyl]-2-(2,2,4-trimethylpyrrolidin-1-yl)pyridine-3-carboxamide], the EC30 under setting [1] was in the range of 3000 to 10000 nM. For `Cc1cccc(C)c1Cn1nc(C(C)(C)C)cc1C(=O)NS(=O)(=O)c1ccsc1` [Compound 603, 5-tert-butyl-2-[(2,6-dimethylphenyl)methyl]-N-(3-thienylsulfonyl)pyrazole-3-carboxamide], the EC30 entry under setting [2] was “+++ (“+++” means <3 uM)”. As to `C[C@@H]1CN(c2nc(-c3cccc(CO)c3)ccc2C(=O)NS(=O)(=O)c2ccc[nH]c2=O)C(C)(C)C1` [Compound 1997, 6-[3-(hydroxymethyl)phenyl]-N-[(2-oxo-1H-pyridin-3-yl)sulfonyl]-2-[(4S)-2,2,4-trimethylpyrrolidin-1-yl]pyridine-3-carboxamide], under setting [1], the EC30 lay within 3000 to 10000 nM. As to `COc1ncccc1-c1ccc(C(=O)NS(=O)(=O)c2ccc[nH]c2=O)c(N2C[C@@H](C)CC2(C)C)n1` [Compound 2454, 6-(2-methoxy-3-pyridyl)-N-[(2-oxo-1H-pyridin-3-yl)sulfonyl]-2-[(4S)-2,2,4-trimethylpyrrolidin-1-yl]pyridine-3-carboxamide], the EC30 under setting [1] was in the range of 3000 to 10000 nM.

Turning to `COc1c(F)cc(Cl)cc1-c1cc(C(=O)NS(=O)(=O)c2ccccc2)n(Cc2c(C)cccc2C)n1` [Compound 379, N-(benzenesulfonyl)-5-(5-chloro-3-fluoro-2-methoxy-phenyl)-2-[(2,6-dimethylphenyl)methyl]pyrazole-3-carboxamide], the EC30 entry under setting [2] was “+++ (“+++” means <3 uM)”. With `CCOc1cccc(S(=O)(=O)NC(=O)c2cccnc2N2CC(C)CC2(C)C)n1` (centres unmarked) [Compound 2617, N-[(6-ethoxy-2-pyridyl)sulfonyl]-2-(2,2,4-trimethylpyrrolidin-1-yl)pyridine-3-carboxamide], under setting [1], the EC30 is 3000 to 10000 nM. Regarding `CC(C)(C)c1cc(C(=O)NS(=O)(=O)c2cccc(N)c2)n(Cc2c(Cl)cccc2C(F)(F)F)n1` [Compound 189, N-(3-aminophenyl)sulfonyl-5-tert-butyl-2-[[2-chloro-6-(trifluoromethyl)phenyl]methyl]pyrazole-3-carboxamide], under setting [2], the EC30 result was “+++ (“+++” means <3 uM)”.
